The term Kd denotes a measure of binding affinity in units of concentration. The low end stands for tighter binding, the high end for weaker binding.

Experiment [1] deals with T1, XRN2 (Homo sapiens, UniProt Q9H0D6).
T1 sequence (Q9H0D6 1-790): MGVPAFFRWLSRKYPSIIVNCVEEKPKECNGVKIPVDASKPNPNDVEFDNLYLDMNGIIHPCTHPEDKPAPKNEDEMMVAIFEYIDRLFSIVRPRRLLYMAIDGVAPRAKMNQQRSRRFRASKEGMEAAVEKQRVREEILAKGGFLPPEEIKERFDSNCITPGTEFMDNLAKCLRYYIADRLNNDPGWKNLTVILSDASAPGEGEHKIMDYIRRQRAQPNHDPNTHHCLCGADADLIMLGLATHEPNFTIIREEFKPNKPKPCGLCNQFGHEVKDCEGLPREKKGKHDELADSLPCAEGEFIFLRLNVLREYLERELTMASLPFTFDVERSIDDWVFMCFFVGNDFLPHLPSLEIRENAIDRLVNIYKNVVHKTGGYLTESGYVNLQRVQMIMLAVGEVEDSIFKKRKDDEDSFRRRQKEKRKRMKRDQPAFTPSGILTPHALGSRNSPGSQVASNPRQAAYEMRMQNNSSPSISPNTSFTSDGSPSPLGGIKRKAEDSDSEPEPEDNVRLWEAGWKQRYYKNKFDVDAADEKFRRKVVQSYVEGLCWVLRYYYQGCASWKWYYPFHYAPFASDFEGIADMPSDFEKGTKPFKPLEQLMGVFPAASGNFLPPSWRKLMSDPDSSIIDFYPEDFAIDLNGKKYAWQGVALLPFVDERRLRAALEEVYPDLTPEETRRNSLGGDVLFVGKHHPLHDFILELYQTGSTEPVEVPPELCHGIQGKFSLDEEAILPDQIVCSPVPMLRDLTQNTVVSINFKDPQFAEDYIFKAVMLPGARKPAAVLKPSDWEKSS
Kind of experiment: SPR. The class given is binding.

Experiment [2] concerns the target XRN1 (5’-3’ exoribonuclease 1) (Homo sapiens, UniProt Q8IZH2). Kind of experiment: SPR. The class given is binding.

XRN1 (5’-3’ exoribonuclease 1), sequence (Q8IZH2 1-1191): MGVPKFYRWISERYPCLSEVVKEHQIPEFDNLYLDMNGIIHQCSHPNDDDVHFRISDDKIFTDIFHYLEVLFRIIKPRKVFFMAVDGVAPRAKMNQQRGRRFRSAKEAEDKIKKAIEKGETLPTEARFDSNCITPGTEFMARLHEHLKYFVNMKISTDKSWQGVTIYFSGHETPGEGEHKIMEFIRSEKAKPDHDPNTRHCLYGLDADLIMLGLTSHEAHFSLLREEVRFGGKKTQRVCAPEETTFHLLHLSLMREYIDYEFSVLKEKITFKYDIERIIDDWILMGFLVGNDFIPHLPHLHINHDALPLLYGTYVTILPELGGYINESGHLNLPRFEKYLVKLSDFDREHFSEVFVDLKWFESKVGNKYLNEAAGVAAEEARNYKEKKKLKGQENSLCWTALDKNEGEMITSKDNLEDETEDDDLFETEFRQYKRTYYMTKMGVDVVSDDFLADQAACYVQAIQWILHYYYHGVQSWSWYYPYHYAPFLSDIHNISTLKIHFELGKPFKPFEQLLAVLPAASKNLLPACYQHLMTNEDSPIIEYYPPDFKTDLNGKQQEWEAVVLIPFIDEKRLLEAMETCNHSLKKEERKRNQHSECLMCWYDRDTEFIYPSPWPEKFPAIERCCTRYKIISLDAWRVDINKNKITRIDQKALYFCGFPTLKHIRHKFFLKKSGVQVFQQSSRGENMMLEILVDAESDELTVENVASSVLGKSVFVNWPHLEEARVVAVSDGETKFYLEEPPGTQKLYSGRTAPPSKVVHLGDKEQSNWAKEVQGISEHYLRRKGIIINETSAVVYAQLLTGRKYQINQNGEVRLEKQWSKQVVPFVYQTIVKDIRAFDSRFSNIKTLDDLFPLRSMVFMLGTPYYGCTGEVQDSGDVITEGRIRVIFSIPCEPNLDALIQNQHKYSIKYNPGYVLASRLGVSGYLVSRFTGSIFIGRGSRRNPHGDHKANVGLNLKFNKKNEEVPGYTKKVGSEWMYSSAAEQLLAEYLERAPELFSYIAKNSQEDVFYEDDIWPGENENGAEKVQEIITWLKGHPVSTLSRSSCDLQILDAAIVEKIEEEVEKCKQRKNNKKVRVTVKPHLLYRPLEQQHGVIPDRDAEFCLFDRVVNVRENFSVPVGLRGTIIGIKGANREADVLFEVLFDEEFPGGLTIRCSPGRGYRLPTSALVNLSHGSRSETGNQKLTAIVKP

Consider `Nc1ncnc2c1ncn2[C@@H]1O[C@H](COP(=O)(O)O)[C@@H](OP(=O)(O)O)[C@H]1O` [pAp, adenosine-3’,5’-bisphosphate], for which the Kd in experiment [1] is 14 ± 4 nM; in experiment [2], 12 ± 1 nM.
